In publication PMC8012596, “Hypouricemic agents reduce indoxyl sulfate excretion by inhibiting the renal transporters OAT1/3 and ABCG2” (Scientific Reports, 2021):
Where a name gives a salt, the structure may show the parent alone. Read-outs that look alike come from different tables or passages of the source.

Columns and labels:
[1] = Plasma concentration of hypouricemic agents in intact and adenine-induced acute renal failure rats; type: in vivo, Wistar rats; details: Supplemental Fig. 2; in words
Protocol: Supplemental Fig. 1 Full-length blots/gels of renal expression of OAT1 (A/D), OAT3 (B/E), and ABCG2 (C/F) protein in intact and adenine-induced acute renal failure rats The chemiluminescence in blots and the proteins in gels were detected using ChemiDoc XRS Plus (Bio-Rad Laboratories, Inc.).
Supplemental Fig. 2 Plasma concentration of hypouricemic agents in intact rats and adenine-induced acute renal failure rats
Plasma drug concentration was measured using the same samples for measuring endogenous IS and d4-IS. Plasma samples were deproteinated with thrice volume of methanol and centrifuged at 1,000 × g for 10 min at 4°C. Drug concentrations were measured using the Alliance 2695 HPLC system (Waters Corporation. Milford, MA).

intact rats [2] = assay: Effect of hypouricemic agents on pharmacokinetics of intravenously administered d4-IS in intact rats; type: in vivo, Wistar rats; design: concentration or dose not given beside the values
intact rats [3] = assay: Effect of hypouricemic agents on endogenous IS pharmacokinetics in intact rats; details: for Effect on plasma concentration of endogenous IS: in words; for Kidney IS concentration compared with control: endogenous IS, at 4 h
Protocol: Thirty minutes after drug administration, 0.3 mg/kg d^4-IS dissolved in saline was intravenously administered via the tail vein to all rats. Blood samples were obtained from the jugular vein at 0.083, 0.25, 0.5, 1, 2, and 4 h after d^4-IS administration using a heparinized needle and kept on ice, and then the kidney was isolated with the rats under isoflurane anesthesia. Plasma was obtained by centrifuging the blood samples at 1000 × g for 10 min at 4 °C. To prepare the kidney sample, 4-times volume of saline was added to the sample and homogenized.
Endogenous IS and d^4-IS were determined in these samples as previously described with slightly modifications[10]. Briefly, the plasma and kidney homogenates were deproteinized using the internal standard containing methanol. These samples were measured using a liquid chromatography-tandem mass spectrometry (LC–MS/MS) systems consisting of a Nexera X2 and a Prominence instrument (Shimadzu Corp., Kyoto, Japan) coupled with QTRAP4500 (AB SCIEX, LLC., Framingham, MA). Pharmacokinetic parameters (AUC0-4 hr, C0, V0, T1/2, and CLtot) were analyzed using the Phoenix WinNonlin 6.4 software (Certara, L.P., Princeton, NJ). Some pharmacokinetic parameters were calculated using the following equations, in which "IS" means endogenous IS or d^4-IS. CLR, plasma = (urine IS concentration × urine volume) / AUC0-4 hr. CLR, kidney = (urine IS concentration × urine volume) / (kidney IS concentration at 4 h × 4). Kp = kidney IS concentration at 4 h / plasma IS concentration at 4 h.

[4] = tested on: adenine-induced acute renal failure rats; assay: Effect of hypouricemic agents on pharmacokinetics of d4-IS in adenine-induced acute renal failure rats; type: in vivo, Wistar rats; details: in words
Protocol: Wistar rats were orally administered 600 mg/kg of adenine, once daily for 5 days. One week after the last administration, urine samples were collected for 4 h. Furthermore, blood samples were obtained from the jugular vein under the isoflurane anesthesia. […] Creatinine level in the plasma and urine was measured using the U-3900 spectrophotometer (Hitachi High-Tech Science Corp., Tokyo, Japan) with the L-type Wako Creatinine F kit (Wako Pure Chemical Industries, Ltd., Osaka, Japan). Creatinine clearance (CLCRE) was calculated using the following equation: CLCRE = [urine creatinine level (mg/dl) × urine volume (ml/min)] / plasma creatinine level (mg/dl) / body weight (kg). […] Four days later, the rats were selected based on the weight and serum creatinine level, and used in the study. In the intact group, the rats were used 4 days after the urine and blood sampling.

[5] = design: method as in Pharmaceuticals and Medical Devices Agency; details: ref Pharmaceuticals and Medical Devices Agency, read-out: Cmax at clinical dose, cited from earlier work
[6] = design: method as in Pharmaceuticals and Medical Devices Agency; details: ref Pharmaceuticals and Medical Devices Agency; cited from earlier work
[7] = design: method as in PMID 29016645; details: in humans; cited from earlier work

Structure (SMILES)	Plasma concentrations of the drugs in adenine-induced acute renal failure rats versus intact rats [1]	Decrease of CLR, plasma of d4-IS compared with control (intact rats [2]) [%]	Decrease of CLtot of d4-IS compared with control (intact rats [2]) [%]	Effect on plasma concentration of endogenous IS (intact rats [3])	Effect on plasma concentration of d4-IS [4]	Cmax ([5]; Cmax of q.d. administration, at a dose of 4 mg, for 1 weeks) [µM]	fu (unbound fraction rate) [6]	Decrease of CLR, kidney of d4-IS compared with control (intact rats [2]) [%]	Decrease of CLR, kidney of endogenous IS compared with control (intact rats [3]) [%]	Decrease of CLR, plasma of endogenous IS compared with control (intact rats [3]) [%]	Increase of AUC0-4 hr of endogenous IS compared with control (intact rats [3]) [%]	Kidney IS concentration compared with control (intact rats [3]) [times]	plasma protein binding ratio [7] [%]	Cmax ([5]; mean concentration of q.i.d. administration, at a dose of 2 g, for 4 weeks) [µM]
CCc1oc2ccccc2c1C(=O)c1cc(Br)c(O)c(Br)c1 [Benzbromarone]	not lower than those in intact rats	43	34	did not have any effects	–	–	–	–	–	–	–	–	–	–
O=C(c1cc(Cl)c(O)c(Cl)c1)N1CS(=O)(=O)c2ccccc21 [Dotinurad]	–	–	–	did not have any effects	did not have any effect	1.2	0.007	–	–	–	–	–	–	–
Cc1nc(-c2ccc(OCC(C)C)c(C#N)c2)sc1C(=O)O [Febuxostat]	not lower than those in intact rats	35	44	significantly increased	–	–	–	94	93	39	85	15.1	–	–
O=S(=O)(O)Oc1c[nH]c2ccccc12 [IS, Indoxyl sulfate]	–	–	–	–	–	–	–	–	–	–	–	–	93	–
CCCN(CCC)S(=O)(=O)c1ccc(C(=O)O)cc1 [Probenecid]	not lower than those in intact rats	78	80	significantly increased	moderate but significant increase	–	0.11	–	–	73	244	1.7	–	79
